Entries after “also recorded” stand apart in the source; their conditions may differ.
Experiments:
[1] = test system: bone marrow-derived MSCs (lack matriptase expression); assay: Tolerance of bone marrow-derived mesenchymal stromal cells (cell count); format: cell-based, human; settings: 5 nM, 4 days
Protocol: Cell numbers were determined by Vi-Cell counter.
Human bone marrow-derived MSCs, which lack matriptase expression, were used as a control to determine the cytotoxic selectivity of M24-DOX as shown in FIG. 4 where bone marrow-derived mesenchymal stromal cells (5×10^4/well, 24-well plates) were treated with M24-DOX or free DOX at varying concentrations for 4 days. Cell numbers were determined by Vi-Cell counter.

[2] = test system: breast tumors (MDA-MB468); assay: Human breast xenograft tumor model, M69-DOX; format: in vivo, NOD/SCID mice; settings: 2 mg/kg
Protocol: FIG. 8 illustrates the M69-DOX conjugate targeting active matriptase inhibited breast tumor growth in vivo, comparing treatment by M69-DOX at 10 mg/Kg and 20 mg/Kg doses with treatment by DOX at 2 mg/Kg dose and the control.
FIG. 9 illustrates reduction of the tumor weight by M69-DOX at 10 mg/Kg and 20 mg/Kg doses in comparison with treatment by DOX at 2 mg/Kg dose and the control.
To assess the efficacy of M69-DOX to suppress tumor growth in vivo, a human breast xenograft tumor model was used. NOD/SCID mice bearing breast tumors (MDA-MB468) were treated twice weekly with M69-DOX at either 20 or 10 mg/kg, as well as treated with DOX at 2 mg/kg. […] As a single mAb was attached with 7 molecules of DOX, a dose at 10 mg/kg of M69-DOX is equivalent to […] of DOX administered.
Reduced Weights of Tumor Masses in Mice Treated with M69-DOX. At the end of the treatment course, the tumor masses were collected from the experimental mice, and were weighed. The average weights of tumors from the groups treated with M69-DOX at either dose as well as treated with DOX were reduced to about 50% of the one from the untreated control group (FIG. 9). Significant reduction in tumor weights by M69-DOX further confirms the efficacy of site-directed delivery of DOX to tumor cells expressing activated matriptase.

[3] = test system: MM cells; assay: MM cell proliferation, DOX-conjugates alone and combined with thalidomide; format: cell-based; settings: thalidomide alone
Source text: FIGS. 6A and B illustrate that thalidomide sensitizes MM cells to M69-DOX, but not M24-DOX: (A) comparison of treatment of MM cells by M69-DOX alone with the M69-DOX/thalidomide combination treatment; and (B) comparison of treatment of MM cells by M24-DOX alone with the M24-DOX/thalidomide combination treatment.
Thalidomide is a therapeutic for multiple myeloma treatment, and the combination of thalidomide and dexamethasone is one of the most common regimens for treatment of patients with multiple myeloma, with an response rate of up to 60-70% (Denz, U., Eur. J. Cancer., 2006, 42:1591-1600; Gieseler, F., et al., Thromb. Haemost., 2008, 99: 1001-1007). The efficacy of both DOX-conjugates in combination with current MM therapeutics such as thalidomide was tested.

[4] = test system: matriptase; assay: Matriptase activation in MM cells (Western analysis with mAb M69); format: cell-based, human; settings: 24-hour treatment, 50 μM
Protocol: (§1) FIG. 5 illustrates activation of matriptase in MM cells induced by thalidomide. MM cells (MM.1S) were treated with varying concentrations of thalidomide as indicated for 24 hours followed by Western analyses to detect the activation of matriptase using a specific monoclonal antibody (M69) to the active form of the enzyme. […] GAPDH served as control.
as §1, with “7” for “5”
To examine the increase in cytotoxicity that resulted with the thalidomide and M69-DOX conjugate we measured the effect of thalidomide on expression of activated matriptase.

[5] = test system: PC-3 prostate carcinoma; settings: PC-3 xenograft; cited from earlier work

## COc1cccc2c1C(=O)c1c(O)c3c(c(O)c1C2=O)C[C@@](O)(C(=O)CO)C[C@@H]3OC1CC(N)C(O)C(C)O1 (stereo partly drawn) [DOX, (8S,10S)-10-(4-amino-5-hydroxy-6-methyl-tetrahydro-2H-pyran-2-yloxy)-6,8,11-trihydroxy-8-(2-hydroxyacetyl)-1-methoxy-7,8,9,10-tetrahydrotetracene-5,12-dione]
[1]
  effect on MSC proliferation: significantly inhibit cell proliferation
[2]
  tumor growth: significantly abolished
[2]; end of treatment
  average weights of tumors relative to untreated control group: about 50%

## O=C1CCC(N2C(=O)c3ccccc3C2=O)C(=O)N1 (stereo not drawn) [thalidomide]
[3]
  effect on MM cell proliferation: no effect on MM cell proliferation; also recorded: little effect on the cell proliferation of MM cells
[4]
  activation of matriptase in MM cells: markedly enhanced

## ecotin: matriptase inhibitor
[5]
  tumor growth and metastasis formation: Reduced tumor growth and metastasis formation

From patent publication US11752215B2, “Targeting tumor cells with chemotherapeutic agents conjugated to anti-matriptase antibodies by in vivo cleavable linking moieties” (priority 2016, dated 2023)
